In ChEMBL document CHEMBL1255458, “Worldwide experience with the use of doripenem against extended-spectrum-beta-lactamase-producing and ciprofloxacin-resistant Enterobacteriaceae: analysis of six phase 3 clinical studies” (2010):
Converted amounts (≈) assume the structure as drawn.

Tests used:
[1] = test system: Enterobacteriaceae; assay: Antibacterial activity against extended spectrum beta-lactamase-producing Enterobacteriaceae clinical isolates isolated from patient with nosocomial pneumonia assessed as cure rate at test-of-cure visit by mMITT analysis; assay type: functional
[2] = test system: Enterobacteriaceae; assay: Antibacterial activity against extended spectrum beta-lactamase-producing Enterobacteriaceae clinical isolates by broth microdilution method; assay type: functional
[3] = test system: Enterobacteriaceae; assay: Antibacterial activity against Enterobacteriaceae clinical isolates isolated from patient with nosocomial pneumonia assessed as cure rate at test-of-cure visit by mMITT analysis; assay type: functional
[4] = test system: Enterobacteriaceae; assay: Antibacterial activity against extended spectrum beta-lactamase-producing Enterobacteriaceae clinical isolates isolated from patient with nosocomial pneumonia assessed as cure rate at test-of-cure visit; assay type: functional
[5] = test system: Enterobacteriaceae; assay: Antibacterial activity against ciprofloxacin-resistant Enterobacteriaceae clinical isolates by broth microdilution method; assay type: functional
[6] = test system: Enterobacteriaceae; assay: Antibacterial activity against ciprofloxacin-resistant Enterobacteriaceae clinical isolates isolated from patient with nosocomial pneumonia assessed as cure rate at test-of-cure visit by mMITT analysis; assay type: functional
[7] = test system: Enterobacteriaceae; assay: Antibacterial activity against Enterobacteriaceae clinical isolates isolated from patient with nosocomial pneumonia assessed as cure rate at test-of-cure visit; assay type: functional
[8] = test system: Klebsiella pneumoniae; assay: Antibacterial activity against […] Klebsiella pneumoniae by broth microdilution method; assay type: functional
[9] = test system: Enterobacteriaceae; assay: Antibacterial activity against extended spectrum beta-lactamase-producing Enterobacteriaceae clinical isolates isolated from patient with urinary tract infection assessed as cure rate at test-of-cure visit by mMITT analysis; assay type: functional, Urine
[10] = test system: Enterobacteriaceae; assay: Antibacterial activity against Enterobacteriaceae clinical isolates isolated from patient with complicated urinary tract infection assessed as cure rate at test-of-cure visit; assay type: functional, Urine
[11] = test system: Enterobacteriaceae; assay: Antibacterial activity against ciprofloxacin-resistant Enterobacteriaceae clinical isolates isolated from patient with urinary tract infection assessed as cure rate at test-of-cure visit by mMITT analysis; assay type: functional, Urine
[12] = test system: Enterobacteriaceae; assay: Antibacterial activity against extended spectrum beta-lactamase-producing Enterobacteriaceae clinical isolates isolated from patient with complicated urinary tract infection assessed as cure rate at test-of-cure visit by mMITT analysis; assay type: functional, Urine
[13] = test system: Enterobacteriaceae; assay: Antibacterial activity against extended spectrum beta-lactamase-producing Enterobacteriaceae clinical isolates isolated from patient with complicated urinary tract infection assessed as cure rate at test-of-cure visit; assay type: functional, Urine
[14] = test system: Enterobacteriaceae; assay: Antibacterial activity against extended spectrum beta-lactamase-producing Enterobacteriaceae clinical isolates isolated from patient with complicated intra-abdominal infection assessed as cure rate at test-of-cure visit; assay type: functional
[15] = test system: Enterobacteriaceae; assay: Antibacterial activity against ciprofloxacin-resistant Enterobacteriaceae clinical isolates isolated from patient with complicated intra-abdominal infection assessed as cure rate at test-of-cure visit by mMITT analysis; assay type: functional
[16] = test system: Enterobacteriaceae; assay: Antibacterial activity against Enterobacteriaceae clinical isolates isolated from patient with urinary tract infection assessed as cure rate at test-of-cure visit; assay type: functional, Urine
[17] = test system: Enterobacteriaceae; assay: Antibacterial activity against ciprofloxacin-resistant Enterobacteriaceae clinical isolates isolated from patient with complicated urinary tract infection assessed as cure rate at test-of-cure visit by mMITT analysis; assay type: functional, Urine
[18] = test system: Enterobacteriaceae; assay: Antibacterial activity against ciprofloxacin-resistant Enterobacteriaceae clinical isolates isolated from patient with nosocomial pneumonia assessed as cure rate at test-of-cure visit; assay type: functional
[19] = test system: Enterobacteriaceae; assay: Antibacterial activity against Enterobacteriaceae clinical isolates isolated from patient with complicated urinary tract infection assessed as cure rate at test-of-cure visit by mMITT analysis; assay type: functional, Urine
[20] = test system: Enterobacteriaceae; assay: Antibacterial activity against extended spectrum beta-lactamase-producing Enterobacteriaceae clinical isolates isolated from patient with complicated intra-abdominal infection assessed as cure rate at test-of-cure visit by mMITT analysis; assay type: functional
[21] = test system: Enterobacteriaceae; assay: Antibacterial activity against extended spectrum beta-lactamase-producing Enterobacteriaceae clinical isolates isolated from patient with urinary tract infection assessed as cure rate at test-of-cure visit; assay type: functional, Urine
[22] = test system: Enterobacteriaceae; assay: Antibacterial activity against Enterobacteriaceae clinical isolates isolated from patient with urinary tract infection assessed as cure rate at test-of-cure visit by mMITT analysis; assay type: functional, Urine
[23] = test system: Enterobacteriaceae; assay: Antibacterial activity against Enterobacteriaceae clinical isolates isolated from patient with complicated intra-abdominal infection assessed as cure rate at test-of-cure visit; assay type: functional
[24] = test system: Enterobacteriaceae; assay: Antibacterial activity against ciprofloxacin-resistant Enterobacteriaceae clinical isolates isolated from patient with complicated intra-abdominal infection assessed as cure rate at test-of-cure visit; assay type: functional
[25] = test system: Enterobacteriaceae; assay: Antibacterial activity against ciprofloxacin-resistant Enterobacteriaceae clinical isolates isolated from patient with urinary tract infection assessed as cure rate at test-of-cure visit; assay type: functional, Urine
[26] = test system: Enterobacteriaceae; assay: Antibacterial activity against Enterobacteriaceae clinical isolates isolated from patient with complicated intra-abdominal infection assessed as cure rate at test-of-cure visit by mMITT analysis; assay type: functional
[27] = test system: Enterobacteriaceae; assay: Antibacterial activity against Enterobacteriaceae by broth microdilution method; assay type: functional
[28] = test system: Enterobacteriaceae; assay: Antibacterial activity against ciprofloxacin-resistant Enterobacteriaceae clinical isolates isolated from patient with complicated urinary tract infection assessed as cure rate at test-of-cure visit; assay type: functional, Urine

For `C[C@@H](O)[C@H]1C(=O)N2C(C(=O)O)=C(SCCNC=N)C[C@H]12` [IMIPENEM ANHYDROUS], the Activity [1] was 100%, the MIC50 [2] was 0.12 µg/mL (≈ 0.401 µM) and the MIC90 [2] was 0.5 µg/mL (≈ 1.67 µM). The Activity [3] was 61.4%, the Activity [4] was 100% and the MIC50 [5] was 0.12 µg/mL (≈ 0.401 µM). The MIC90 [5] was 1 µg/mL (≈ 3.34 µM), the Activity [6] was 83.3% and the Activity [7] was 64.4%. For the same molecule, the MIC50 [8] was 0.12 µg/mL (≈ 0.401 µM) and the MIC90 [8] was 1 µg/mL (≈ 3.34 µM).

For `C[C@@H](O)[C@H]1C(=O)N2C(C(=O)O)=C(S[C@@H]3CN[C@H](C(=O)Nc4cccc(C(=O)O)c4)C3)[C@H](C)[C@H]12` [ERTAPENEM], the MIC50 [2] was 0.12 µg/mL (≈ 0.252 µM), the MIC90 [2] was 1 µg/mL (≈ 2.1 µM) and the MIC50 [5] was ≤ 0.03 µg/mL. The MIC90 [5] was 4 µg/mL (≈ 8.41 µM), the MIC50 [8] was ≤ 0.03 µg/mL and the MIC90 [8] was ≤ 0.03 µg/mL.

Work on `C[C@@H](O)[C@H]1C(=O)N2C(C(=O)O)=C(S[C@@H]3CN[C@H](CNS(N)(=O)=O)C3)[C@H](C)[C@H]12` [DORIPENEM] yielded an Activity [9] of 66.7%, an Activity [10] of 83.5% and an Activity [11] of 61.9%. The Activity [12] was 50%, the Activity [13] was 60% and the Activity [14] was 71.4%. The Activity [1] was 64.3%, the Activity [15] was 83.3% and the Activity [16] was 82.3%. The MIC50 [2] was 0.06 µg/mL (≈ 0.143 µM), the MIC90 [2] was 0.25 µg/mL (≈ 0.595 µM) and the Activity [17] was 53.3%. The Activity [3] was 59.6%, the Activity [18] was 70% and the Activity [19] was 74.3%. It also gave an Activity [20] of 75%, an Activity [4] of 75% and an MIC50 [5] of 0.03 µg/mL (≈ 0.0713 µM). For the same molecule, the MIC90 [5] was 0.5 µg/mL (≈ 1.19 µM), the Activity [21] was 72.7% and the Activity [22] was 73.6%. The Activity [7] was 69.1%, the Activity [23] was 84.4% and the MIC50 [8] was ≤ 0.03 µg/mL. For the same molecule, the MIC90 [8] was 0.12 µg/mL (≈ 0.285 µM), the Activity [24] was 82.4% and the Activity [25] was 68.1%. For the same molecule, the Activity [26] was 77.3%.

`C[C@@H](O)[C@H]1C(=O)N2C(C(=O)O)=C(S[C@@H]3CN[C@H](C(=O)N(C)C)C3)[C@H](C)[C@H]12` [MEROPENEM] was tested, and the Activity [14] was 100%, the Activity [15] was 81.3% and the MIC50 [2] was ≤ 0.03 µg/mL. The MIC90 [2] was 0.12 µg/mL (≈ 0.313 µM), the Activity [20] was 62.5% and the MIC50 [5] was 0.03 µg/mL (≈ 0.0782 µM). The MIC90 [5] was 0.25 µg/mL (≈ 0.652 µM), the Activity [23] was 85% and the MIC50 [8] was ≤ 0.03 µg/mL. The MIC90 [8] was 0.06 µg/mL (≈ 0.156 µM), the Activity [24] was 91.7% and the Activity [26] was 77.9%.

`NCC[C@H](O)C(=O)N[C@@H]1C[C@H](N)[C@@H](O[C@H]2O[C@H](CN)[C@@H](O)[C@H](O)[C@H]2O)[C@H](O)[C@H]1O[C@H]1O[C@H](CO)[C@@H](O)[C@H](N)[C@H]1O` [AMIKACIN] gave an MIC50 [27] of 2 µg/mL (≈ 3.42 µM), an MIC90 [27] of 8 µg/mL (≈ 13.7 µM) and an MIC50 [2] of 8 µg/mL (≈ 13.7 µM). The MIC90 [2] was > 64 µg/mL and the MIC50 [5] was 4 µg/mL (≈ 6.83 µM).

In the case of `C[C@H]1COc2c(N3CCN(C)CC3)c(F)cc3c(=O)c(C(=O)O)cn1c23.C[C@H]1COc2c(N3CCN(C)CC3)c(F)cc3c(=O)c(C(=O)O)cn1c23.O` [LEVOFLOXACIN], the Activity [10] is reported as 85.4%, the MIC50 [27] is reported as ≤ 0.03 µg/mL and the MIC90 [27] is reported as 8 µg/mL. For the same molecule, the Activity [12] was 14.3%, the Activity [13] was 20% and the Activity [28] was 21.9%. The MIC50 [2] was 8 µg/mL, the MIC90 [2] was 32 µg/mL and the Activity [17] was 23.8%. For the same molecule, the Activity [19] was 75.2%, the MIC50 [5] was 16 µg/mL and the MIC90 [5] was 64 µg/mL.

`CC(C)(O/N=C(\C(=O)N[C@@H]1C(=O)N2C(C(=O)[O-])=C(C[n+]3ccccc3)CS[C@H]12)c1csc(N)n1)C(=O)O` [CEFTAZIDIME] showed an MIC50 [27] of 0.12 µg/mL (≈ 0.22 µM), an MIC90 [27] of 0.5 µg/mL (≈ 0.915 µM) and an MIC50 [2] of 32 µg/mL (≈ 58.5 µM). The MIC90 [2] was > 32 µg/mL, the MIC50 [5] was 1 µg/mL (≈ 1.83 µM) and the MIC90 [5] was > 32 µg/mL.
